Reference: patent US20230255938A1, “COMPOSITION FOR INHIBITING SEBUM SECRETION COMPRISING FABP4 INHIBITOR” (THE INDUSTRY & ACADEMIC COOPERATION IN CHUNGNAM NATIONAL …, priority 2022, published 2023)

Legend:
Assay type in all cases: cell-based
phospho-IGFR (p-IGFR) = assay: Western blotting of phospho-IGFR in IGF-1-treated immortalized human sebocytes; settings: 1, 2 or 5 μM BMS309403 for 1 hour, then 50 ng/mL IGF-1; Western blot, FIG. 1 lower left
Procedure: (§1) Immortalized human sebocytes were used for the experiment. The cell lines were established as previously described. All procedures were approved by the Institutional Committee of Chungnam National University Hospital. The immortalized human sebocytes were cultured in Sebomed medium (Biochrom, Berlin, Germany) supplemented with 10% fetal bovine serum (Gibco BRL, Rockville, Md., USA) and 5 ng/mL of recombinant human EGF (Invitrogen, Grand Island, N.Y., USA).
(§2) After harvesting, the cells were lysed in protein extraction solution (Intron, Daejeon, Korea). Equal amounts of protein were then loaded and separated by […], and then the proteins were transferred onto nitrocellulose membranes (Pall Corp., Port Washington, N.Y., USA). After blocking with 5% skim milk, the membranes were incubated with various primary antibodies. The blot was reacted with a secondary antibody conjugated with peroxidase, and were visualized for specific proteins with ECL (BIOMAX, Seoul, Korea). The primary antibodies used in western blot analysis were as follows: Actin, SREBP-1(Santa Cruz, Calif.), PPAR-γ, phospho-IGFR (p-IGFR), phospho-Akt (Cell Signaling Technology, Danvers, Mass.)
(§3) The effect of BMS309403 on IGF-1-induced lipid synthesis was measured using an immortalized human sebaceous cell line established in a previous study. Immortalized human sebocytes were treated with 1, 2 or 5 μM of BMS309403. […]

[1] = test system: immortalized human sebocytes; assay: TLC of intracellular lipids (14C-acetate), IGF-1-induced lipid synthesis; settings: 1, 2 or 5 μM; TLC 48 hours after IGF-1 (50 ng/mL) treatment; FIG. 1 right
Procedure: as §1
For quantitative analysis of intracellular lipids, the present invention used the TLC method as used in previous studies. Briefly, immortalized human sebocytes were cultured in a medium containing 2 μCi of ^14C-acetate and sodium salt (PerkinElmer, Boston, Mass., USA) and allowed to react for 4 hours. Intracellular lipids were extracted with chloroform and methanol (2:1, v/v). The solvent was evaporated and the lipid was resuspended in chloroform. TLC (TLC silica gel 60 F254, Merck KgaA) was used to separate intracellular lipids. After development with hexane and ethyl acetate (6:1, v/v), intracellular lipids were visualized by radioactivity measurement.
The effect of BMS309403 on IGF-1-induced lipid synthesis was measured using an immortalized human sebaceous cell line established in a previous study. Immortalized human sebocytes were treated with 1, 2 or 5 μM of BMS309403. After treatment with BMS309403 for 1 hour, sebocytes were treated with 50 ng/mL of IGF-1 to induce differentiation and lipid synthesis.
IGF-1 increased the Intracellular lipid synthesis such as cholesterol, triglycerides, wax esters and squalene in immortalized human sebocytes.

phospho-Akt = assay: Western blotting of phospho-Akt in IGF-1-treated immortalized human sebocytes; settings: 1, 2 or 5 μM BMS309403 for 1 hour, then 50 ng/mL IGF-1; Western blot, FIG. 1 lower left
Procedure: as §1, §2, §3

PPAR-γ = assay: Western blotting of PPAR-γ in IGF-1-treated immortalized human sebocytes; settings: 1, 2 or 5 μM BMS309403 for 1 hour, then 50 ng/mL IGF-1; Western blot, FIG. 1 upper left
Procedure: as §1, §2, §3

SREBP-1 = assay: Western blotting of SREBP-1 in IGF-1-treated immortalized human sebocytes; settings: 1, 2 or 5 μM BMS309403 for 1 hour, then 50 ng/mL IGF-1; Western blot, FIG. 1 upper left
Procedure: as §1, §2, §3

Q: Which “phosphorylation of IGFR” value (phospho-IGFR (p-IGFR)) does the source give for `CCc1c(-c2ccccc2)c(-c2ccccc2)nn1-c1ccccc1-c1cccc(OCC(=O)O)c1` [BMS309403] here?
A: Its value is “markedly reduced phosphorylation of IGFR and Akt in a dose-dependent manner”.

Q: And the “IGF-1-induced lipid synthesis (cholesterol, triglycerides, wax esters and squalene)” value [1]?
A: The value was “reduced IGF-1-induced lipid synthesis”.

Q: And the intracellular lipid accumulation [1]?
A: The intracellular lipid accumulation was “reduced intracellular lipid accumulation in a dose-dependent manner”.

Q: What about the synthesis of squalene [1] of the same compound?
A: The synthesis of squalene was “significantly reduced”.

Q: And the “synthesis of wax esters” value [1]?
A: Its value is “significantly reduced”.

Q: And the “phosphorylation of Akt” value (phospho-Akt)?
A: The value was “markedly reduced phosphorylation of IGFR and Akt in a dose-dependent manner”.

Q: And the “level of PPAR-γ (transcription factor related to sebocyte differentiation)” value (PPAR-γ)?
A: Its value is “decreased their levels in a dose-dependent manner”.

Q: And the “level of SREBP-1 (transcription factor related to sebocyte differentiation)” value (SREBP-1)?
A: The value was “decreased their levels in a dose-dependent manner”.
